Results taken from publication PMC10892375, “Determination of the Cannabinoid CB1 Receptor’s Positive Allosteric Modulator Binding Site through Mutagenesis Studies” (Pharmaceuticals, 2024).

Assays:
Format in all cases: cell-based
Conditions in all cases: for G protein dissociation, AUC of 10 μM compound (maximal response): 10 μM ligand alone
[1] = biological target: T1, hCB1 mutant L404A^8.50 (Homo sapiens, UniProt P21554, L404A); experiment: pIRES G protein dissociation BRET assay, L404A mutant
T1 construct: expressed in transfected cells; host or cells: HEK293
Description: (§1) Mutagenesis studies using the pIRES G protein dissociation assay were performed using human embryonic kidney 293 (HEK293) wild-type cells transiently transfected with pplss-3HA-hCB1 [31] or modified receptor. All cells were cultured in Dulbecco’s Modified Eagle’s Medium (DMEM) supplemented with 10% fetal bovine serum (FBS), grown in […] vented-cap flasks, and maintained in a 37° C incubator at 5% CO2.
(§2) Mutants of pplss-3HA-hCB1 (WT, pEF-V4-HisA (pEF4a) construct) were generated using a modified QuikChange® (Stratagene, San Diego, CA, USA) site-directed mutagenesis approach using KAPA HiFi Hotstart Polymerase (KAPA Biosystems, Roche, Basel, Switzerland). Briefly, single-stranded primers used to modify one or two base pairs within the target amino acid using PCR were purchased from Integrated DNA Technologies (IDT, Coralville, IA, USA). All pplss-hCB1 mutants were generated using the pplss-3HA-hCB1 pEF4a as parental DNA. PCR products were generated using recommended cycling conditions and treated with Dpn1 (New England Biolabs, Ipswich, MA, USA) overnight at 37° C to digest methylated parental DNA. PCR products were electrophoresed and run on an agarose gel (1% (w.v^−1) agarose, HydraGene, Piscataway, NJ, USA) containing 0.25 μg/mL ethidium bromide (Sigma-Aldrich, St. Louis, MO, USA). Gels were run in 40 mM TRIS-acetate buffer containing […] (pH 8.3) at 100 V for 30 min, maximum current and included a 1kb+ DNA ladder (Invitrogen, Thermo Fisher Scientific, Carlsbad, CA, USA) for reference. Gels were imaged using an UVTech Alliance Q9 Mini transilluminator (UVTech Alliance, Cambridge, UK). Digested products were then used to transform NEB 5α competent E. coli cells in accordance with manufacturer’s instructions. Briefly, transformed PCR products were grown overnight on 8.5 mL Luria Broth agar plates (containing 100 μg/mL ampicillin) at 37° C. Single bacterial colonies were picked and inoculated in Luria Broth (containing 100 μg/mL ampicillin) and grown overnight in a shaking incubator at 37° C. Plasmids were then harvested and purified using a Qiagen miniprep kit (Qiagen, Hilden, Germany) and validated using sequencing (Genetics Analysis Service, University of Otago, Dunedin, New Zealand).
(§3) Dissociation of the G protein heterotrimer, specifically Gαi1, Gβ1, and Gγ2, was investigated using a bioluminescence resonance energy transfer (BRET) assay with the pIRES biosensor first described by and adapted by.
(§4) Briefly, 3 × 10^6 WT HEK293 cells were seeded into 10 cm culture dishes (Corning, Corning, NY, USA; one dish for the control receptor and one for each modified receptor) and incubated at 37 °C for 24 h to gain 50–60% confluency. Culture medium was then replaced and transfection mixtures containing 3 μg pIRES vector and 1 μg receptor (either pplss-hCB1 or modified receptor) were prepared (4 μg total DNA). Plasmids were initially diluted in sterile Milli-Q water before being diluted in OptiMEM reduced serum medium (Thermo Fisher Scientific, Waltham, MA, USA) and combined with […] polyethylenimine (PEI)-max (1:9 DNA:PEI-max ratio) and incubated at room temperature for 20 min. Transfection mixtures were then added to cells via dropwise addition, and cells were incubated at 37 °C for 24 h. Transfected cells were lifted and plated at 50,000 cells/well into poly-d-lysine (PDL; Sigma-Aldrich) coated white 96-well CulturPlates (PerkinElmer, Waltham, MA, USA) and incubated for a further 24 h at 37 °C.
(§5) To assay, the culture medium was aspirated and cells were washed with phosphate buffered saline (PBS) and replaced with BRET assay medium (phenol red free DMEM containing 25 mM HEPES and supplemented with 1 mg/mL bovine serum albumin; BSA, MP Biomedicals, Auckland, New Zealand) for 30 min prior to drug addition (serum starve). Drugs were prepared at 10 × concentration in BRET assay medium, combined in a polypropylene V-bottom plate, and incubated at 37° C prior to drug stimulation.

[2] = biological target: T2, hCB1 mutant R220A^3.56 (Homo sapiens, UniProt P21554, R220A); experiment: pIRES G protein dissociation BRET assay, R220A mutant
T2 construct: expressed in transfected cells; host or cells: HEK293
Description: as §1, §2, §3, §4, §5

[3] = biological target: T3, hCB1 mutant L209A^3.45 (Homo sapiens, UniProt P21554, L209A); experiment: pIRES G protein dissociation BRET assay, L209A mutant
T3 construct: expressed in transfected cells; host or cells: HEK293
Description: as §1, §2, §3, §4
as §5, with “stimulation. […]” for “stimulation.”

[4] = biological target: T4, hCB1 mutant F237A^4.46 (Homo sapiens, UniProt P21554, F237A); experiment: pIRES G protein dissociation BRET assay, F237A mutant
T4 construct: expressed in transfected cells; host or cells: HEK293
Description: as §1, §2, §3, §4, §5

[5] = 10 μM CP55940 in the presence of 10 μM ZCZ011
[6] = in the presence of 10 μM GAT228
[7] = in the presence of 10 μM GAT229
[8] = top of the curve (maximal response)

T1 sequence (P21554 whole entry L404A): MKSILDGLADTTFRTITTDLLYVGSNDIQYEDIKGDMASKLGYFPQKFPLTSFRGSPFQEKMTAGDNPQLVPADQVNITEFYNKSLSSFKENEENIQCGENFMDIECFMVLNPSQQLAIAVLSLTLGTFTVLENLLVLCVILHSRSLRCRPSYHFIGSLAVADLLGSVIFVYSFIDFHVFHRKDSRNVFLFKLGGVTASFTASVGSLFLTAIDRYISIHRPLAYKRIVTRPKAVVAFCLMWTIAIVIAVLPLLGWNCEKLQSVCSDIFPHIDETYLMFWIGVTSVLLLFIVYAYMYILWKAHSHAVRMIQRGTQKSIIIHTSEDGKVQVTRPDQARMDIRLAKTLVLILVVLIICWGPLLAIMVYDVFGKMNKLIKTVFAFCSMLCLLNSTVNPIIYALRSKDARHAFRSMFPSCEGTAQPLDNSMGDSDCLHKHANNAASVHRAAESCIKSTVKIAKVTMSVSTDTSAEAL
T4 sequence (P21554 whole entry F237A): as the sequence (P21554 whole entry L404A) above, with F237A, A404L counted along it
T3 sequence (P21554 whole entry L209A): as the sequence (P21554 whole entry L404A) above, with L209A, A404L counted along it
T2 sequence (P21554 whole entry R220A): as the sequence (P21554 whole entry L404A) above, with R220A, A404L counted along it

Structure (SMILES) | G protein dissociation, AUC, 10 μM CP55940 + 10 μM ZCZ011 [1, 5] | G protein dissociation, AUC of 10 μM compound (maximal response) [1] | EMAX, CP55940 + 10 μM GAT228 [1, 6] | EMAX, CP55940 + 10 μM GAT229 [1, 7] | EMAX, CP55940 Alone [1, 8] | G protein dissociation, AUC, 10 μM CP55940 + 10 μM ZCZ011 [2, 5] | G protein dissociation, AUC of 10 μM compound (maximal response) [2] | EMAX, CP55940 + 10 μM GAT228 [2, 6] | EMAX, CP55940 + 10 μM GAT229 [2, 7] | EMAX, CP55940 Alone [2, 8] | G protein dissociation, AUC, 10 μM CP55940 + 10 μM ZCZ011 [3, 5] | G protein dissociation, AUC of 10 μM compound (maximal response) [3] | EMAX, CP55940 + 10 μM GAT228 [3, 6] | EMAX, CP55940 + 10 μM GAT229 [3, 7] | EMAX, CP55940 Alone [3, 8] | G protein dissociation, AUC, 10 μM CP55940 + 10 μM ZCZ011 [4, 5] | G protein dissociation, AUC of 10 μM compound (maximal response) [4] | EMAX, CP55940 + 10 μM GAT228 [4, 6] | EMAX, CP55940 + 10 μM GAT229 [4, 7] | EMAX, CP55940 Alone [4, 8]
CCCCCCC(C)(C)c1ccc([C@@H]2C[C@H](O)CC[C@H]2CCCO)c(O)c1 [CP55940] | −133.5 ± 5.6 | −110.3 ± 3.7 | −115.1 ± 8.3 ∆BRET.sec | −122.3 ± 7.0 ∆BRET.sec | −103.1 ± 3.6 ∆BRET.sec | −137.8 ± 5.0 | −112.1 ± 2.9 | −140.1 ± 13.5 ∆BRET.sec | −144.6 ± 10.4 ∆BRET.sec | −110.8 ± 2.8 ∆BRET.sec | −71.3 ± 4.2 | −42.7 ± 2.8 | −43.2 ± 4.5 ∆BRET.sec | −51.9 ± 2.8 ∆BRET.sec | −39.8 ± 1.1 ∆BRET.sec | −85.2 ± 9.9 | −69.8 ± 6.5 | −69.4 ± 6.4 ∆BRET.sec | −67.4 ± 8.3 ∆BRET.sec | −69.8 ± 6.7 ∆BRET.sec
Cc1ccc2c(C(C[N+](=O)[O-])c3cccs3)c(-c3ccccc3)[nH]c2c1 (centres unmarked) [ZCZ011, 6-Methyl-3-(2-nitro-1-(thiophen-2-yl)ethyl)-2-phenyl-1 H-indole] | – | −85.2 ± 7.3 | – | – | – | – | −95.7 ± 7.7 | – | – | – | – | −34.4 ± 2.9 | – | – | – | – | −64.2 ± 4.1 | – | – | –
O=[N+]([O-])C[C@@H](c1ccccc1)c1c(-c2ccccc2)[nH]c2ccccc12 [GAT229] | – | −88.9 ± 6.2 | – | – | – | – | −102.9 ± 9.9 | – | – | – | – | −25.1 ± 3.5 | – | – | – | – | −52.4 ± 5.2 | – | – | –
O=[N+]([O-])C[C@H](c1ccccc1)c1c(-c2ccccc2)[nH]c2ccccc12 [GAT228] | – | −63.2 ± 5.6 | – | – | – | – | −85.2 ± 13.6 | – | – | – | – | −19.0 ± 3.3 | – | – | – | – | −40.8 ± 2.8 | – | – | –
